Results reported in the NIST ThermoML archive (doi:10.1021/acs.jced.5b00251).

Test: refractive index (other wavelength) (dimensionless); xn = mol fraction of the nth substance listed
Conditions: 101 kPa, Liquid, Standard Abbe refractometry

CC(C)Cc1ccccc1 [(2-methylpropyl)benzene] + c1ccc2c(c1)CCCC2
refractive index
Conditions | x2 = 0.1014 | x2 = 0.2024 | x2 = 0.3032 | x2 = 0.4036 | x2 = 0.5038 | x2 = 0.6036 | x2 = 0.7032 | x2 = 0.8024 | x2 = 0.9014
293.15 K, Wavelength=436.1 nm | 1.50977 | 1.51503 | 1.52078 | 1.52612 | 1.53208 | 1.53797 | 1.54392 | 1.55007 | 1.55611
293.15 K, Wavelength=513.9 nm | 1.49809 | 1.50316 | 1.5087 | 1.51409 | 1.51959 | 1.52525 | 1.53097 | 1.5369 | 1.54273
293.15 K, Wavelength=589.3 nm | 1.49141 | 1.49657 | 1.50199 | 1.50701 | 1.51266 | 1.51821 | 1.52382 | 1.52961 | 1.53531
293.15 K, Wavelength=633.2 nm | 1.4889 | 1.49381 | 1.49922 | 1.50445 | 1.50978 | 1.51528 | 1.52085 | 1.5266 | 1.53226
293.15 K, Wavelength=657.2 nm | 1.48749 | 1.49254 | 1.49852 | 1.50384 | 1.50967 | 1.51394 | 1.52005 | 1.52522 | 1.53141
298.15 K, Wavelength=436.1 nm | 1.50717 | 1.51248 | 1.51824 | 1.52362 | 1.52954 | 1.53551 | 1.54144 | 1.54758 | 1.55354
298.15 K, Wavelength=513.9 nm | 1.49546 | 1.50075 | 1.50623 | 1.51165 | 1.51711 | 1.52288 | 1.5286 | 1.53447 | 1.54022
298.15 K, Wavelength=589.3 nm | 1.48927 | 1.49432 | 1.49956 | 1.50446 | 1.51023 | 1.51588 | 1.52148 | 1.52722 | 1.53287
298.15 K, Wavelength=633.2 nm | 1.48633 | 1.49149 | 1.49681 | 1.50206 | 1.50737 | 1.51298 | 1.51853 | 1.52424 | 1.52981
298.15 K, Wavelength=657.2 nm | 1.48512 | 1.49029 | 1.49594 | 1.50135 | 1.50706 | 1.51205 | 1.51776 | 1.52302 | 1.52941
303.15 K, Wavelength=436.1 nm | 1.50468 | 1.50986 | 1.51569 | 1.52094 | 1.52674 | 1.53306 | 1.53885 | 1.54503 | 1.55109
303.15 K, Wavelength=513.9 nm | 1.49315 | 1.49828 | 1.50376 | 1.50899 | 1.5146 | 1.52033 | 1.52606 | 1.532 | 1.53785
303.15 K, Wavelength=589.3 nm | 1.48673 | 1.49163 | 1.49715 | 1.5021 | 1.50776 | 1.51352 | 1.51899 | 1.52478 | 1.53052
303.15 K, Wavelength=633.2 nm | 1.48406 | 1.48893 | 1.49439 | 1.49932 | 1.50493 | 1.51036 | 1.51604 | 1.52181 | 1.52748
303.15 K, Wavelength=657.2 nm | 1.48275 | 1.48792 | 1.49332 | 1.49885 | 1.50461 | 1.50983 | 1.51528 | 1.52043 | 1.52666
308.15 K, Wavelength=436.1 nm | 1.50202 | 1.50759 | 1.5129 | 1.51879 | 1.52412 | 1.53042 | 1.53639 | 1.5425 | 1.54823
308.15 K, Wavelength=513.9 nm | 1.49045 | 1.49591 | 1.50103 | 1.50671 | 1.51215 | 1.51765 | 1.52366 | 1.52953 | 1.53505
308.15 K, Wavelength=589.3 nm | 1.48428 | 1.48939 | 1.49461 | 1.49955 | 1.50515 | 1.51099 | 1.51661 | 1.52237 | 1.52797
308.15 K, Wavelength=633.2 nm | 1.48142 | 1.48659 | 1.4917 | 1.49701 | 1.50224 | 1.50811 | 1.51368 | 1.51941 | 1.52477
308.15 K, Wavelength=657.2 nm | 1.48038 | 1.48538 | 1.49085 | 1.49669 | 1.50224 | 1.50738 | 1.51272 | 1.51825 | 1.52447
313.15 K, Wavelength=436.1 nm | 1.49957 | 1.5048 | 1.51044 | 1.51631 | 1.52152 | 1.52806 | 1.53388 | 1.54002 | 1.54572
313.15 K, Wavelength=513.9 nm | 1.48816 | 1.49321 | 1.49885 | 1.50413 | 1.50976 | 1.51512 | 1.52123 | 1.52715 | 1.53263
313.15 K, Wavelength=589.3 nm | 1.48198 | 1.48705 | 1.49215 | 1.49702 | 1.50259 | 1.50845 | 1.51422 | 1.52003 | 1.52558
313.15 K, Wavelength=633.2 nm | 1.47918 | 1.48409 | 1.48957 | 1.49422 | 1.49959 | 1.50542 | 1.51132 | 1.51708 | 1.52248
313.15 K, Wavelength=657.2 nm | 1.47807 | 1.48312 | 1.48866 | 1.49418 | 1.49947 | 1.50491 | 1.51025 | 1.51573 | 1.52168
318.15 K, Wavelength=436.1 nm | 1.49678 | 1.50247 | 1.50783 | 1.51372 | 1.51897 | 1.52533 | 1.53125 | 1.53748 | 1.54301
318.15 K, Wavelength=513.9 nm | 1.48564 | 1.49078 | 1.49611 | 1.50143 | 1.50751 | 1.51299 | 1.51892 | 1.52466 | 1.53007
318.15 K, Wavelength=589.3 nm | 1.47955 | 1.48455 | 1.48962 | 1.49455 | 1.49987 | 1.50614 | 1.51175 | 1.51758 | 1.52287
318.15 K, Wavelength=633.2 nm | 1.47656 | 1.48179 | 1.4869 | 1.49181 | 1.49721 | 1.50325 | 1.50887 | 1.51464 | 1.51989
318.15 K, Wavelength=657.2 nm | 1.47562 | 1.48056 | 1.48595 | 1.49181 | 1.49685 | 1.50222 | 1.50758 | 1.51388 | 1.51897
